Assay results taken from patent US12441734B2, “Ferroptosis inhibitor and use therefor” (JICHI MEDICAL UNIVERSITY, priority 2021, dated 2025).
pEC50: −log10 of the molar value. “Also recorded” adds a separate entry of the source. Values belong to the compound of their own block, whether it stands above or below them.

Tests used:
[1] = test system: Leigh syndrome patient cells (LS^ND3); test: Test I: suppression of RSL-3-induced cell death, Leigh syndrome patient cells; type: cell-based, human; conditions: 50 nM RSL-3 alone or coadded with inhibitor, 48 hours, FIG. 2B, 4B
Description: (§1) In the drawing, the abscissa depicts test compounds, and the ordinate depicts the cell viability (%) of each treated plot when the number of live cells in a control non-supplemented with RSL-3 is defined as 100%.
as §1

[2] = test system: Leigh syndrome patient cells (LS^ND3); test: Test I: suppression of BSO-induced cell death, Leigh syndrome patient cells; type: cell-based, human; conditions: 100 μM BSO alone or coadded with inhibitor (1 μM; GSK872 1-10 μM, v-VAD 1, 10 μM), 48 hours; FIG. 1B, 3B
Description: (§2) In the drawing, the abscissa depicts test compounds, and the ordinate depicts the cell viability (%) of each treated plot when the number of live cells in a control non-supplemented with BSO is defined as 100%.
as §2

[3] = test system: human liver cancer cell line (Huh7); test: Test V: suppression of RSL-3-induced cell death in liver cancer cell system (LDH, MTT); type: cell-based; set-up: key to LDH (LDH activity, cell death): relative to control without RSL-3 (= 1); conditions: for cell death induced by RSL-3 (in words): Huh7, RSL-3 0.5 μM; for LDH (LDH activity, cell death) / MTT (cell proliferation and cell viability) / viability at 1 µM: Huh7, test compound 1 μM (GSK872 5 μM) 1 hour, then RSL-3 0.5 μM 24 hours, relative value, control non-supplemented with RSL-3 = 1; for viability at 1 µM: Homo sapiens, Huh-7, read-out: MTT (cell proliferation and cell viability)
Method: The ferroptosis inducer used was RSL-3.
At the stage where 70% confluency was attained, the medium was replaced with the medium for the test, and DMSO or each test compound (final concentration of GSK872: 5 μM, and final concentration of the other compounds: 1 μM) was added to the cells in each well, which were then cultured for 1 hour. Then, the ferroptosis inducer (final concentration: 0.5 μM) was added to the cells in each well, which were then cultured for 24 hours. After the completion of culture, cell death suppressive activity was measured with lactate dehydrogenase (LDH) activity as an index while cell proliferation and cell viability were measured with activity of reducing yellow tetrazolium salt (MTT) into formazan as an index.
The values in the table are relative values when the LDH activity and MTT value of a control non-supplemented with RSL-3 are each defined as 1.

[4] = test system: mitochondrial cardiomyopathy patient cells (ME250-1); test: Test I: suppression of RSL-3-induced cell death, mitochondrial cardiomyopathy patient cells; type: cell-based, human; conditions: 10-140 nM RSL-3 alone or coadded with drug; FIG. 8B
Description: as §1

[5] = test system: mitochondrial hepatopathy patient cells (ME263-1); test: Test I: suppression of RSL-3-induced cell death, mitochondrial hepatopathy patient cells; type: cell-based, human; conditions: 10-140 nM RSL-3 coadded with drug; FIG. 9B
[6] = test system: normal cells (Promo1 cells); test: Test I: RSL-3 and test compounds on normal cells; type: cell-based, human; conditions: RSL-3 alone or coadded with inhibitor, 48 hours; FIG. 4A, 8A
Description: as §1, §1, §1

[7] = test system: Kearns-Sayre syndrome (KSS) patient cells (ME130-1); test: Test I: suppression of RSL-3-induced cell death, KSS patient cells; type: cell-based, human; conditions: 10-140 nM RSL-3 coadded with drug; FIG. 10B
[8] = test system: Kearns-Sayre syndrome (KSS) patient cells (ME130-1); test: Test I: suppression of BSO-induced cell death, KSS patient cells; conditions: BSO coadded with drug; FIG. 7B
[9] = test system: mitochondrial hepatopathy patient cells (ME263-1); test: Test I: suppression of BSO-induced cell death, mitochondrial hepatopathy patient cells; conditions: 50-200 μM BSO coadded with drug; FIG. 6B
[10] = test system: mitochondrial cardiomyopathy patient cells (ME250-1); test: Test I: suppression of BSO-induced cell death, mitochondrial cardiomyopathy patient cells; type: cell-based, human; conditions: 50-200 μM BSO alone or coadded with drug; FIG. 5B
dopamine D2 receptor = dopamine D2 receptor (Homo sapiens (Human), UniProt P14416); test: Test IV: dopamine D2 receptor binding activity (GeneBLAzer D2-Gqo5-NEAT-bla CHO-K1 Cell-based Assay); conditions: for Dopamine D2 receptor binding activity, Activity intensity: CHO-K1 reporter cells, 5 hours
dopamine D2 receptor, sequence (P14416 whole entry): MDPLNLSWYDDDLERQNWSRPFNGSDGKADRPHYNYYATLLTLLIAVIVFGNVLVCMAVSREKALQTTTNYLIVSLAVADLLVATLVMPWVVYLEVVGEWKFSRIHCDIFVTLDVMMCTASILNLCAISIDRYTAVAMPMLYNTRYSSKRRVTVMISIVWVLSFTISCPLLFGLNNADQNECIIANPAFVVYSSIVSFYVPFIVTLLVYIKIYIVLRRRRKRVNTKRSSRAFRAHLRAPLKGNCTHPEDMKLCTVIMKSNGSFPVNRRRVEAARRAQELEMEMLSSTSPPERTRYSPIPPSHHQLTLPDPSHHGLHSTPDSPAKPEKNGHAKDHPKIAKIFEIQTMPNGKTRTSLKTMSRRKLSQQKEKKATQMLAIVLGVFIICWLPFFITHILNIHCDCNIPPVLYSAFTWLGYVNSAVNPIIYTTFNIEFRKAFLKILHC
Method: In this test, the dopamine D2 receptor binding activity of each test compound was measured using GeneBLAzer D2-Gqo5-NEAT-bla CHO-K1 Cell-based Assay (Thermo Fisher Scientific, Inc.). The CHO cells are designed such that a signal transduction pathway is activated by addition of a drug to express a reporter gene (P lactamase). […] Therefore, the binding activity of the test compound can be measured by measuring a blue fluorescence/green fluorescence ratio. The CHO cells were inoculated at 10,000 cells/well to a 384-well plate and cultured for 16 to 20 hours in a CO2 incubator. […] A substrate mix was added to the cells and incubated at room temperature for 2 hours. […] The respective EC50 values of the test compounds were determined from the measured fluorescence ratios using GraphPad Prism 8.

[11] = test system: Leigh syndrome patient cells (KCMC10); test: Test III: suppression of BSO-induced ferroptosis, Leigh syndrome patient cells; type: cell-based, human; conditions: for cell death ascribable to ferroptosis induced by BSO: 100 μM BSO coadded with test compound, FIG. 32; for pEC50: Homo sapiens, read-out: EC50 (50% effective concentration of the suppressive effect on cell death ascribable to ferroptosis induced by BSO); for pEC50 / ferroptosis inhibitory effect (judged from EC50 value): Leigh syndrome patient cells (KCMC10), BSO; for ferroptosis inhibitory effect (judged from EC50 value): Table 3
Description: (§3) Apomorphine and idebenone approved as a therapeutic drug for Leber's hereditary optic neuropathy in the Europe were used as control drugs.
(§4) In the drawing, A depicts the results obtained using compounds D8, D9, D10, D18, D20, D26, and D36, and B depicts the results obtained using compounds D37, D38, D39, D40, D41, D42, and D43. In the drawing, the abscissa depicts test compounds, and the ordinate depicts the cell viability (%) of each treated plot when the number of live cells in a control non-supplemented with BSO is defined as 100%.

[12] = test system: MELAS patient cells (ME169); test: Test III: suppression of RSL-3-induced ferroptosis, MELAS patient cells; type: cell-based, human; conditions: 100 nM RSL-3 coadded with test compound; FIG. 35
Description: as §3
as §4, with “RSL-3” for “BSO”

SH-SY5Y cells = test: Test VI: inhibition of rotenone-induced neuronal death (LDH assay); type: cell-based, human; set-up: key: ++: the case where a concentration-dependent inhibitory effect on rotenone-induced cell death was able to be confirmed twice; +: In the third test, the case where the concentration-dependent inhibitory effect was able to be confirmed; ±: the case where no concentration-dependent inhibitory effect was able to be confirmed; −: The case where any inhibitory effect on rotenone-induced cell death was able to be confirmed in none of the two tests; conditions: rotenone 1 μM, compound 10 nM-10 μM (Apo 0.1 nM-10 μM), 48 hours
Method: After the completion of culture, rotenone-induced cell death was measured using Cytotoxicity LDH Assay Kit-WST (Dojindo Laboratories). […] The test was conducted twice, and the case where a concentration-dependent inhibitory effect on rotenone-induced cell death was able to be confirmed twice was rated as (++). If the inhibitory effect was confirmed in one of the two tests and no inhibitory effect was confirmed in the other test, the third test was conducted. In the third test, the case where the concentration-dependent inhibitory effect was able to be confirmed was rated as (+), and the case where no concentration-dependent inhibitory effect was able to be confirmed was rated as (±). The case where any inhibitory effect on rotenone-induced cell death was able to be confirmed in none of the two tests was rated as (−).

[13] = test system: MELAS patient cells (ME169); test: Test III: suppression of BSO-induced ferroptosis, MELAS patient cells; type: cell-based, human; conditions: 80 μM BSO coadded with test compound; FIG. 33
Description: as §3, §4

[14] = test system: Leigh syndrome patient cells (KCMC10); test: Test III: suppression of RSL-3-induced ferroptosis, Leigh syndrome patient cells; type: cell-based, human; conditions: 100 nM RSL-3 coadded with test compound; FIG. 34
Description: as §3
as §4, with “RSL-3” for “BSO”

SMILES: CCOC(=O)c1ccc(NC2CCCCC2)c(N)c1 [Fer-1, ferrostatin-1]
cell death induced by RSL-3 (cell viability) [1]: the same or similar results; also recorded: same or similar tendency as above was more strongly confirmed
cell death induced by BSO (cell viability) [2]: suppressed
cell death induced by RSL-3 (in words) [3]: suppressed
LDH (LDH activity, cell death) [3]: 2.50
MTT (cell proliferation and cell viability) [3]: 0.86
cell death induced by RSL-3 (cell viability) [4]: suppressed
cell death induced by RSL-3 (cell viability) [5]: the same or similar results
cell death (cell viability) in normal cells, RSL-3 [6]: suppressed
cell death induced by RSL-3 (cell viability) [7]: the same or similar results

SMILES: COC1=C(OC)C(=O)C(CCCCCCCCCCO)=C(C)C1=O [Ide, idebenone]
cell death induced by BSO (cell viability) [8]: the same or similar results
cell death induced by BSO (cell viability) [9]: the same or similar results
cell death induced by BSO (cell viability) [10]: suppressed

SMILES: COC(=O)c1ccc([C@@H]2c3[nH]c4ccccc4c3C[C@@H](C(=O)OC)N2C(=O)CCl)cc1 [RSL-3, reference compound]
cell death induced by RSL-3 (in words) [3]: induced
LDH (LDH activity, cell death) [3]: 10.67
MTT (cell proliferation and cell viability) [3]: 0.45
cell death induced by RSL-3 (cell viability) [4]: induced
cell death (cell viability) in normal cells, RSL-3 [6]: induced

SMILES: CC(C)S(=O)(=O)c1ccc2nccc(Nc3ccc4scnc4c3)c2c1 [GSK872]
cell death induced by RSL-3 (cell viability) [1]: same or similar tendency as above was more strongly confirmed
cell death induced by BSO (cell viability) [2]: not suppressed
viability at 1 µM [3]: 38%
LDH (LDH activity, cell death) [3]: 10.84
cell death (cell viability) in normal cells, RSL-3 [6]: similarly induced

SMILES: Clc1cccc(CN=C2Nc3ccccc3NC23CCNCC3)c1 [Lip-1, liproxstatin]
cell death induced by RSL-3 (cell viability) [1]: the same or similar results
cell death induced by BSO (cell viability) [2]: suppressed

SMILES: COc1cc2c3c(c1O)-c1c(ccc(OC)c1OC)CC3N(C)CC2 (centres unmarked) [D26]
dopamine D2 receptor binding activity (in words) (dopamine D2 receptor): no or little
Dopamine D2 receptor binding activity, Activity intensity (dopamine D2 receptor): −
cell death ascribable to ferroptosis induced by BSO [11]: markedly suppressed
pEC50 [11]: 6.54
viability at 1 µM [3]: 58%
LDH (LDH activity, cell death) [3]: 4.85
cell death ascribable to ferroptosis induced by RSL-3 [12]: suppressed
Inhibitory effect on rotenone-induced cell death (SH-SY5Y cells): ±
cell death ascribable to ferroptosis induced by BSO [13]: markedly suppressed
cell death ascribable to ferroptosis induced by RSL-3 [14]: suppressed

Dopamine D2 receptor binding activity, Activity intensity (dopamine D2 receptor): ++
SMILES: CN1CCc2cccc3c2[C@H]1Cc1ccc(O)c(O)c1-3 [Apomorphine, apomorphine]
cell death induced by RSL-3 (cell viability) ([1]; listed as Apo): the same or similar results; also recorded: same or similar tendency as above was more strongly confirmed
cell death induced by BSO (cell viability) [2]: suppressed
viability at 1 µM [3]: 67%
cell death induced by RSL-3 (in words) [3]: suppressed
LDH (LDH activity, cell death) [3]: 1.82
Inhibitory effect on rotenone-induced cell death (SH-SY5Y cells): ±
cell death induced by RSL-3 (cell viability) [4]: suppressed
cell death induced by BSO (cell viability) [8]: the same or similar results
cell death induced by RSL-3 (cell viability) [5]: the same or similar results
cell death (cell viability) in normal cells, RSL-3 [6]: suppressed
cell death induced by BSO (cell viability) [9]: the same or similar results
cell death induced by RSL-3 (cell viability) [7]: the same or similar results
cell death induced by BSO (cell viability) [10]: suppressed

SMILES: CCCCOc1ccc2c(c1O)-c1cccc3c1[C@@H](C2)N(C)CC3.Cl [D36]
dopamine D2 receptor binding activity (in words) (dopamine D2 receptor): no or little
Dopamine D2 receptor binding activity, Activity intensity (dopamine D2 receptor): −
cell death ascribable to ferroptosis induced by BSO [11]: markedly suppressed
pEC50 [11]: 6.91
ferroptosis inhibitory effect (judged from EC50 value) [11]: particularly high
viability at 1 µM [3]: 81%
LDH (LDH activity, cell death) [3]: 0.91
cell death ascribable to ferroptosis induced by RSL-3 [12]: suppressed
Inhibitory effect on rotenone-induced cell death (SH-SY5Y cells): ++
cell death ascribable to ferroptosis induced by BSO [13]: markedly suppressed
cell death ascribable to ferroptosis induced by RSL-3 [14]: suppressed

SMILES: CCCCS(=N)(=O)CCC(N)C(=O)O [BSO, L-buthionine-(S,R)-sulfoximine]
cell death induced by BSO (cell viability) [2]: induced
cell death induced by BSO (cell viability) [10]: induced

SMILES: COc1ccc2c(c1OC)C[C@@H]1c3c(cc4c(c3-2)OCO4)CCN1C [D8]
dopamine D2 receptor binding activity (in words) (dopamine D2 receptor): no or little
Dopamine D2 receptor binding activity, Activity intensity (dopamine D2 receptor): −
cell death ascribable to ferroptosis induced by BSO [11]: markedly suppressed
pEC50 [11]: 6.74
ferroptosis inhibitory effect (judged from EC50 value) [11]: particularly high
viability at 1 µM [3]: 56%
LDH (LDH activity, cell death) [3]: 2.46
cell death ascribable to ferroptosis induced by RSL-3 [12]: suppressed
Inhibitory effect on rotenone-induced cell death (SH-SY5Y cells): ++
cell death ascribable to ferroptosis induced by BSO [13]: markedly suppressed
cell death ascribable to ferroptosis induced by RSL-3 [14]: suppressed

SMILES: CC(=O)N(O)CCCCCNC(=O)CCC(=O)N(O)CCCCCNC(=O)CCC(=O)N(O)CCCCCN [DFO, deferoxamine]
cell death induced by RSL-3 (cell viability) [1]: the same or similar results
cell death induced by BSO (cell viability) [2]: suppressed
